The text below walks through data of US20260376283A1, “A METHOD IMPLEMENTING MORPHOLOGICAL CHANGES OF EXTRACELLULAR ORGANELLE VESICLES SO AS TO EXAMINE THE TRANSPORTING ACTIVITY OF MEMBRANE TRANSPORT PROTEINS AND OTHER RELATED METHODS” (PARIS SCIENCES ET LETTRES, priority 2023, published 2026).

The structures appear in SMILES notation.

Common to all, as to type: biochemical
For assay [1], the system named is ER extracellular organelle vesicle. The experiment in a line: Ca2+ internalization in ER extracellular organelle vesicle by Fluo8-AM fluorescence (Example 3). The following applies: role: substrate, CaCl2 30 mOsm/L, ATP 100 μM, FIG. 5. As for the experimental part:
FIG. 5 represents an ER extracellular organelle vesicle which is maintained thanks to a micropipette into a HKM diluted buffer (20 mOsm/L). This extracellular organelle vesicle has been isolated thanks to an ER resident protein (KDEL), over-expressed by COS7 cells, before organelle vesicles extraction. Before organelle extraction, cells were incubated during 1 h with a fluorophore called “Fluo8-AM” to report for calcium volumic concentration in organelles thanks to green fluorescence emission.
At t=0s, CaCl2 (30 mOsm/L) and ATP (100 μM) were added. Fluorescence microscopy snaps are visualized on FIG. 5 and show calcium concentration inside the ER extracellular organelle vesicle during the experiment.

Assay [2] concerns nucleus cell component (SERCA pump). Nature of the assay: Nucleus cell component response to CaCl2 (Example 6). The following applies: role: substrate, CaCl2 60 mOsm/L / 20 mOsm/L, ATP 100 μM, FIG. 8. How it is done:
(§1) In this example, an Endoplasmic Reticulum extracellular organelle vesicle and a nucleus cell component are isolated together from a same cell with one micropipette, and visualized. ER extracellular organelle vesicle and nucleus cell component were both put in contact with CaCl2 (20 mOsm/L) and ATP (100 μM) during 5 minutes.
(§2) FIG. 8 represents Endoplasmic Reticulum extracellular organelle vesicle and nucleus cell component are maintained thanks one micropipette into a HKM diluted buffer (30 mOsm/L). The extracellular organelle vesicle and the nucleus cell component were respectively isolated thanks to ER and nucleus probes, over-expressed by COS7 cells, before organelle vesicle and nucleus extraction.
(§3) At t=0s, CaCl2 (60 mOsm/L) and ATP (100 μM) were added. Dotted line circle corresponds to the size of the endoplasmic reticulum vesicle before contacting with CaCl2.

Assay [3] relates to Endoplasmic Reticulum extracellular organelle vesicle (SERCA pump). The experiment in a line: ER vesicle response to CaCl2 compared with nucleus (Example 6). The conditions noted are these: role: substrate, CaCl2 60 mOsm/L / 20 mOsm/L, ATP 100 μM, FIG. 8. How it is done:
as §1, §2, §3

The test system of assay [4] is Endoplasmic Reticulum extracellular organelle vesicle (SERCA over-expressed). The experiment in a line: ER vesicle with over-expressed SERCA, response to CaCl2 (Example 7). The following applies: role: substrate, CaCl2 60 mOsm/L, ATP 100 μM. An excerpt:
(§4) In this example, an Endoplasmic Reticulum extracellular organelle vesicle and a plasma membrane cell component are isolated with micropipettes.
(§5) The SERCA protein is over-expressed in cell 1 on its native organelle, the endoplasmic reticulum. In cell 2, SERCA is relocalized by genetic construction on the plasma membrane cell component. This finally serves to isolate with micropipettes, one endoplasmic reticulum extracellular vesicle with SERCA extracted from cell 1 and one plasma membrane cell component enriched with SERCA deriving from cell 2.
(§6) These extracellular organelle vesicle and plasma membrane cell component were isolated thanks to ER and plasma membrane protein probes, over-expressed by COS7 cells, before organelle vesicle and plasma membrane cell component extraction.
(§7) ER extracellular vesicle and plasma membrane cell component were both put in contact with CaCl2 (60 mOsm/L) and ATP (100 μM) during 5 minutes.
(§8) At t=0s, CaCl2 (60 mOsm/L) and ATP (100 μM) were added.

In assay [5] the test system is Endoplasmic Reticulum extracellular organelle vesicle (SERCA pump). The experiment in a line: SERCA specificity: ER vesicle response to CaCl2 (Example 5). The conditions noted are these: role: substrate, CaCl2 30 mOsm/L, ATP 100 μM, FIG. 7. How it is done: (§9) In this example, an Endoplasmic Reticulum extracellular organelle vesicle and a mitochondria extracellular organelle vesicle are isolated simultaneously with micropipettes, and visualized. ER and mitochondria extracellular organelle vesicles were both put in contact with CaCl2 (30 mOsm/L) and ATP (100 μM) during one hour.
(§10) FIG. 7 represents Endoplasmic Reticulum extracellular organelle vesicle and mitochondria extracellular organelle vesicle are maintained thanks two micropipettes into a HKM diluted buffer (30 mOsm/L). These extracellular organelle vesicles were isolated thanks to ER and mitochondria resident proteins, over-expressed by COS7 cells, before organelle vesicles extraction.
(§11) At t=0s, CaCl2 (30 mOsm/L) and ATP (100 μM) were added. Dotted line circles all correspond to the size of the vesicle before contacting with CaCl2.

For assay [6], the system named is mitochondria extracellular organelle vesicle. Nature of the assay: SERCA specificity: mitochondria vesicle response to CaCl2 (Example 5). The following applies: role: substrate, CaCl2 30 mOsm/L, ATP 100 μM, FIG. 7. As for the experimental part:
as §9, §10, §11

Assay [7] has as its system plasma membrane cell component enriched with SERCA. The experiment in a line: Plasma membrane cell component enriched with SERCA, response to CaCl2 (Example 7). The following applies: role: substrate, CaCl2 60 mOsm/L, ATP 100 μM, SERCA relocalized.
Text: as §4, §5, §6, §7, §8

The subject of assay [8] is ion pump SERCA localized on Endoplasmic Reticulum vesicles. The experiment in a line: Ca2+ pump transporting activity by morphological change (deflation/re-swelling) of ER extracellular organelle vesicles (Example 1). As for the experimental part: An initial HKM buffer was prepared with 50 mM Hepes (known as 2-[4-(2-hydroxyethyl)piperazin-1-yl]ethanesulfonic acid), 120 mM potassium acetate, and 1 mM MgCl2 (in Milli-Q water) at pH 7.4. Said initial HKM buffer has an osmolarity of 280±15 mOsm/L.
Then, a membrane tension is applied on cells so as to produce extracellular organelle vesicles without lysing them. At that step, the extracellular organelle vesicles are released (or produced) thanks to the lysis and the removal of the plasma membrane. The membrane tension is carried out by micro-manipulation of the cells under confocal microscope thanks to a micropipette aspiration technique. Micropipette radius is around 1 μm. Thanks to a slight aspiration, a bilayer tongue of the plasma membrane was sucked into the micropipette. The aspiration is then increased at an approximate rate of 10 mbar/min, causing a proportional increase in the bilayer surface tension. At a certain applied tension (e.g. surface tension<0.75 mN/m), the plasma membrane ruptured thanks to a pore opening in the plasma membrane and the extracellular organelle vesicles are released (or extracted).
After extraction, one or more extracellular organelle vesicles are isolated using a micropipette. The micropipettes are used to hold a vesicle during the following methods of the present invention. Before the addition of molecules (ions, sugars or drug molecules), an acquisition is launched to observe the initial size of the vesicle.
Once the acquisition is started, the extracellular organelle vesicle, held by the micropipette is passed through an aqueous solution containing CaCl2 (60 mOsm/L) and ATP (100 μM). Contacting calcium ions with said extracellular organelle vesicle increases the osmolarity of the extravesicular aqueous medium. […] This innovative process allows to examine the transporting activity of the ion pump SERCA localized on Endoplasmic Reticulum vesicles.
FIG. 1 A) represents an extracellular organelle vesicle of endoplasmic reticulum (ER) which is maintained thanks to a micropipette into a HKM diluted buffer (20 mOsm/L) as an extravesicular aqueous medium. This extracellular organelle vesicle has been isolated thanks to an ER resident protein (KDEL), over-expressed by COS7 cells, before organelle vesicles extraction.
At t=0s, CaCl2 (60 mOsm/L) and ATP (100 μM) were added. At t=20s, the ER extracellular organelle vesicle is deflated: it reached its minimum volume (Vi1) and its associated maximum fluorescence signal (Fl1).
Once the acquisition is started, the ER extracellular organelle vesicle, held by the micropipette is passed through an aqueous solution containing sucrose (60 mOsm). […] Sucrose can thus be used as a control or reference in the method of the present invention.

Assay [9] deals with Ca^2+ pump of the Endoplasmic Reticulum. Nature of the assay: Abnormal expression/activity of Ca2+ pump of ER by vesicle morphological change (Example 2). How it is done: FIG. 3 A) represents an extracellular organelle vesicle of endoplasmic reticulum (ER) which is maintained thanks to a micropipette into a HKM diluted buffer (20 mOsm/L) as an extravesicular aqueous medium. This extracellular organelle vesicle has been isolated thanks to an ER resident protein (KDEL), over-expressed by COS7 cells, before organelle vesicles extraction.
At t=0s, CaCl2 (60 mOsm/L) and ATP (100 μM) were added. At t=20s, the ER extracellular organelle vesicle is deflated: it reached its minimum volume (Vi1) and its associated maximum fluorescence signal (Fi1).

Where [10] appears, read: role: substrate, CaCl2 60 mOsm/L, ATP 100 μM, FIG. 1.
Where [11] appears, read: role: substrate, CaCl2 60 mOsm/L, ATP 100 μM, FIG. 3.

On to `[Ca+2].[Cl-].[Cl-]` [CaCl2], for which the “internalization in the ER extracellular organelle vesicle” value in [1] was “internalized in the ER extracellular organelle vesicle”. Moreover, the “Fluo8-AM fluorescence signal (calcium concentration inside vesicle)” value in assay [1] (cells incubated 1 h with Fluo8-AM) is reported as “Fluorescence signal is rising after addition of CaCl2”. For the same compound, the “nucleus cell component response 5 min after contacting” value in [2] is given as “has deflated with no re-swelling”. Moreover, the “ER vesicle volume 5 min after contacting” value in assay [3] is “exhibits a bigger volume as its initial one”. In addition, the “ER vesicle volume 5 min after contacting” value in [4] is listed as “exhibits a bigger volume as its initial one”. Moreover, the “ER vesicle volume 1h after contacting” value in [5] is “exhibits the same volume as its initial one”. Further, the “mitochondria vesicle volume 1h after contacting” value in assay [6] was “has deflated”. Also, the “plasma membrane cell component response 5 min after contacting” value in [7] is “has deflated”. In addition, the “re-swelling process of vesicle” value in assay [8] (role: substrate, 60 mOsm/L, following minutes, CaCl2 with ATP (100 μM), sucrose as control) is on record as “a re-swelling process is gradually observed”. Further, in [8] (role: substrate, CaCl2 60 mOsm/L with ATP (100 μM), or sucrose 60 mOsm without ATP stated, vesicle internal 20 mOsm/L, COS7 ER vesicle), the “deflation of vesicle on contacting” value is reported as “the vesicle deflates in a few seconds”. Besides, in assay [8] (setting [10]), the “time at which vesicle is deflated to minimum volume (Vi1) and maximum fluorescence” value turned out to be 20 s; the “time at which vesicle re-swells to final volume and fluorescence (Vf and Ff)” value is recorded as 90 s. Also, in assay [8] (role: substrate; CaCl2 60 mOsm/L; ATP 100 μM; FIG. 1 B)), the “swelling state of vesicle at t=100s” value was “the vesicle has almost reached its initial state of swelling”. For the same compound, in assay [8] (role: substrate, sucrose as reference compound, FIGS. 1 and 2), the “Vf/Vi1 and Vf/Vi versus reference ratio (transporting activity of SERCA)” value was “Vf/Vi1>Vf,ref/Vi1,ref, and Vf/Vi>Vf,ref/Vi,ref”. Also, in assay [9] (setting [11]), the “time at which vesicle is deflated to minimum volume (Vi1) and maximum fluorescence (Fi1)” value was determined as 20 s; the “time at which vesicle re-swells to final volume and fluorescence (Vf and Ff)” value was found to be 90 s. In assay [9] (role: substrate; CaCl2 60 mOsm/L; ATP 100 μM; FIG. 3 B)), the “vesicle volume at t=300s versus initial state” value is “reached a higher volume than the initial state”.
